Reference: patent US20040028684A1, “Cancer diagnosis and assays for screening anti-cancer agents” (priority 2000, published 2004)

Test system: RMP1
Experiment: Rapamycin sensitive signaling on human RMP1: immunoblot of RMP in insulin-induced HEK293 cells
Format: cell-based
Conditions: serum-deprived HEK293 cells, 50 nM insulin, after 1 h induction, maintained throughout 8 h, no rapamycin
Method: Human Embryonic kidney (HEK293) cells are grown in DMEM+10% FCS. Exponentially growing HEK 293 cells are deprived of serum overnight, and then induced with 50 nM insulin in the presence or absence of 20 nM rapamycin. Protein extracts were prepared from cells harvested at 0 h, 1 h, 2 h, 4 h and 8 h after insulin induction. The cell extracts were subjected to SDS-polyacrylamide gel electrophoresis and the resulting gels were analyzed by immuno-blotting using a rabbit polyclonal anti-human RMP antibody. Antibodies specific for RMP are easily prepared using standard laboratory practices. A secondary antibody specific for rabbit antibodies, labelled was used to visualize RMP on the immunoblot using routine procedures.
In the presence of insulin and amino acids (in the culture medium in this example), RMP is present as a slower migrating form, indicating a phosphorylated form. Under these conditions, the cells continue to synthesize […]. With the addition of rapamycin, RMP is present as a fast migrating form and blocks the synthesis of […]

**Q.** Which “slower migrating form of RMP” value does the source give for insulin here?
**A.** induced
